According to patent publication US20220112479A1, “COMPOUNDS STABILIZING AMYLASES IN LIQUIDS” (BASF SE, priority 2018, published 2022):

Columns and labels:
Type in all cases: biochemical
Amy1=Stainzyme = test: amylase storage stability in liquid formulation (pNP release from Ethyliden-blocked-pNPG7); set-up: key: % of activity in reference formulation at time 0; settings: base formulation IV., 2.0 wt % component (a), storage at 37° C.
Method: (§1) The storage stability of amylase was assessed at 37° C. Base test formulations were manufactured by making base formulations I to V by mixing the components according to Table 1. Amylases used: Amy1=Stainzyme, Amy2=Amplify, Amy3=Stainzyme Plus L (12L) The respective component (a) or comparative compound was added, if applicable, to the respective base formulation in amounts as indicated in Table 1. The amount of amylase as provided in Table 1 refers to active protein. Water was added to accomplish the balance to 100. […] Amylase activity at certain points in time as indicated in Table 2 was measured quantitatively by the release of the chromophore para-nitrophenol (pNP) from the substrate ([…]-blocked-pNPG7, Roche Applied Science 10880078103). The alpha-amylase degrades the substrate into smaller molecules and α-glucosidase (Roche Applied Science 11626329103), which is present in excess compared to the amylase, process these smaller products until pNP is released; the release of pNP, measured via an increase of absorption at 405 nm, is directly proportional to the amylase activity of the sample. Amylase standard: […] 120 L (Sigma 3403). […] The amylolytic activity values provided were calculated referring to the value determined in the reference formulation at the time 0. The nomenclature of formulations is as follows: the Roman number before the full stop characterizes the base formulation, the Arabian number the type of compound (A.# compound according to invention (component (a)); B.# comparative compound).

Amy2=Amplify = test: as above; set-up: key: % of activity in reference formulation at time 0; settings: base formulation V., 2.0 wt % component (a), storage at 37° C.
Method: as §1

[1] = test system: Amy3=Stainzyme Plus L (12L); test: as above; settings: base formulation II., 1.5 wt % component (a), storage at 37° C.
Method: The storage stability of amylase was assessed at 37° C.
(§2) Base test formulations were manufactured by making base formulations I to V by mixing the components according to Table 1.
Amylases used: Amy1=Stainzyme, Amy2=Amplify, Amy3=Stainzyme Plus L (12L)
(§3) The respective component (a) or comparative compound was added, if applicable, to the respective base formulation in amounts as indicated in Table 1.
The amount of amylase as provided in Table 1 refers to active protein.
(§4) Water was added to accomplish the balance to 100.
Amylase activity at certain points in time as indicated in Table 2 was measured quantitatively by the release of the chromophore para-nitrophenol (pNP) from the substrate (Ethyliden-blocked-pNPG7, Roche Applied Science 10880078103). The alpha-amylase degrades the substrate into smaller molecules and α-glucosidase (Roche Applied Science 11626329103), which is present in excess compared to the amylase, process these smaller products until pNP is released; the release of pNP, measured via an increase of absorption at 405 nm, is directly proportional to the amylase activity of the sample. Amylase standard: Termamyl 120 L (Sigma 3403).
The amylolytic activity values provided were calculated referring to the value determined in the reference formulation at the time 0.
The nomenclature of formulations is as follows: the Roman number before the full stop characterizes the base formulation, the Arabian number the type of compound (A.# compound according to invention (component (a)); B.# comparative compound).

Savinase Ultra 16.0L = target: T1, Savinase Ultra 16.0L (Lederbergia lenta, UniProt P29600); test: protease storage stability in liquid formulation (Suc-AAPF-pNA substrate); settings: storage at 37° C.
T1 construct: purchased Sigma-Aldrich
T1 sequence (P29600 1-269): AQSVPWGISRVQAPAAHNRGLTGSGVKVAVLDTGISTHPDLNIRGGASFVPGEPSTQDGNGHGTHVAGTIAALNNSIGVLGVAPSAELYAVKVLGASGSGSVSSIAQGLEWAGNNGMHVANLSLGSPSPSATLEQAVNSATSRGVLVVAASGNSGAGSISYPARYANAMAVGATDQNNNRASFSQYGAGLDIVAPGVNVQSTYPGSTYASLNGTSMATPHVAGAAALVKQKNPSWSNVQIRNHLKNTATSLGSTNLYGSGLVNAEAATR
Method: as §2
Protease used: (S) Savinase Ultra 16.0L (CAS-No. 9014-01-1, EC-No. 232-752-2) was purchased from Sigma-Aldrich
as §3
The amount of protease as provided in Table 1 refers to active protein.
as §4
Protease activity at certain points in time as indicated in Table 3 was be determined by employing Succinyl-Ala-Ala-Pro-Phe-p-nitroanilide (Suc-AAPF-pNA, short AAPF) as substrate. pNA is cleaved from the substrate molecule by proteolytic cleavage, resulting in release of yellow color of free pNA which was determined by measuring […]. Measurements were done at 20° C.
The proteolytic activity values provided in Table 3 were calculated referring to the value determined in the reference formulation at the time 0.
The nomenclature of formulations is as follows: the Roman number before the full stop characterizes the base formulation, the Arabian number the type of salt (A.#inventive salt (component (a)); B.# comparative compound). Zero (“0”): no salt, but diethylene glycol.

`O=C(CC(O)(CC(=O)OCc1ccccc1)C(=O)OCc1ccccc1)OCc1ccccc1` [A.8, Tribenzylcitrate] was tested, and the “amylase activity, referring to reference formulation at time 0” value (“amylase activity, referring” for short) (Amy1=Stainzyme; 3 d) was 96, the “amylase activity, referring” value (Amy1=Stainzyme; 7 d) was 92 and the “amylase activity, referring” value (Amy1=Stainzyme; 14 d) was 86. The “amylase activity, referring” value (Amy1=Stainzyme; 21 d) was 81, the “amylase activity, referring” value (Amy1=Stainzyme; 28 d) was 70 and the “amylase activity, referring” value (Amy1=Stainzyme; 42 d) was 59. The “amylase activity, referring” value (Amy1=Stainzyme; T0) was 98, the “amylase activity, referring” value (Amy2=Amplify; 3 d) was 93 and the “amylase activity, referring” value (Amy2=Amplify; 7 d) was 86. The “amylase activity, referring” value (Amy2=Amplify; 14 d) was 80, the “amylase activity, referring” value (Amy2=Amplify; 21 d) was 77 and the “amylase activity, referring” value (Amy2=Amplify; 28 d) was 66. For the same compound, the “amylase activity, referring” value (Amy2=Amplify; 42 d) was 59, the “amylase activity, referring” value (Amy2=Amplify; T0) was 98 and the “amylase activity, referring” value ([1]; 3 d) was 100. For the same compound, the “amylase activity, referring” value ([1]; 7 d) was 95, the “amylase activity, referring” value ([1]; 14 d) was 90 and the “amylase activity, referring” value ([1]; 21 d) was 83. The “amylase activity, referring” value ([1]; 28 d) was 81, the “amylase activity, referring” value ([1]; 42 d) was 71 and the “amylase activity, referring” value ([1]; T0) was 99. The “protease activity, referring to reference formulation at time 0” value (from here on “protease activity, referring”) (Savinase Ultra 16.0L; base formulation II., 1.5 wt % component (a), 3 d) was 94, the “protease activity, referring” value (Savinase Ultra 16.0L; base formulation II., 1.5 wt % component (a), 7 d) was 93 and the “protease activity, referring” value (Savinase Ultra 16.0L; base formulation II., 1.5 wt % component (a), 14 d) was 90. For the same compound, the “protease activity, referring” value (Savinase Ultra 16.0L; base formulation II., 1.5 wt % component (a), 21 d) was 87, the “protease activity, referring” value (Savinase Ultra 16.0L; base formulation II., 1.5 wt % component (a), 28 d) was 83 and the “protease activity, referring” value (Savinase Ultra 16.0L; base formulation II., 1.5 wt % component (a), 42 d) was 75. For the same compound, the “protease activity, referring” value (Savinase Ultra 16.0L; base formulation II., 1.5 wt % component (a), T0) was 100, the “protease activity, referring” value (Savinase Ultra 16.0L; base formulation IV., 2.0 wt % component (a), 3 d) was 96 and the “protease activity, referring” value (Savinase Ultra 16.0L; base formulation IV., 2.0 wt % component (a), 7 d) was 93. The “protease activity, referring” value (Savinase Ultra 16.0L; base formulation IV., 2.0 wt % component (a), 14 d) was 88, the “protease activity, referring” value (Savinase Ultra 16.0L; base formulation IV., 2.0 wt % component (a), 21 d) was 83 and the “protease activity, referring” value (Savinase Ultra 16.0L; base formulation IV., 2.0 wt % component (a), 28 d) was 75. The “protease activity, referring” value (Savinase Ultra 16.0L; base formulation IV., 2.0 wt % component (a), 42 d) was 68, the “protease activity, referring” value (Savinase Ultra 16.0L; base formulation IV., 2.0 wt % component (a), T0) was 98 and the “protease activity, referring” value (Savinase Ultra 16.0L; base formulation V., 2.0 wt % component (a), 3 d) was 96. For the same compound, the “protease activity, referring” value (Savinase Ultra 16.0L; base formulation V., 2.0 wt % component (a), 7 d) was 92, the “protease activity, referring” value (Savinase Ultra 16.0L; base formulation V., 2.0 wt % component (a), 14 d) was 86 and the “protease activity, referring” value (Savinase Ultra 16.0L; base formulation V., 2.0 wt % component (a), 21 d) was 82. The “protease activity, referring” value (Savinase Ultra 16.0L; base formulation V., 2.0 wt % component (a), 28 d) was 77, the “protease activity, referring” value (Savinase Ultra 16.0L; base formulation V., 2.0 wt % component (a), 42 d) was 69 and the “protease activity, referring” value (Savinase Ultra 16.0L; base formulation V., 2.0 wt % component (a), T0) was 100.
